Data: ChEMBL document CHEMBL1128782, “Nucleosides and nucleotides. 142. an alternative synthesis of and its antiviral activity” (Bioorg Med Chem Lett, 1995)
In brackets after ≈: the same amount, converted by molar mass.

Key:
[1] = test system: Human betaherpesvirus 5; assay: Effective dose required for plaque reduction in human cytomegalovirus (HCMV) was determined; assay type: functional, organism-based
[2] = test system: Influenza B virus; assay: Effective dose required to reduce virus induced cytopathogenicity by Influenza B(Fu 207) was determined; assay type: functional, organism-based
[3] = test system: Vesicular stomatitis virus; assay: Effective dose required for plaque reduction in vesicular stomatitis virus (VSV) was determined; assay type: functional, organism-based
[4] = test system: Influenza B virus; assay: Effective dose required to reduce virus induced cytopathogenicity by Influenza B(singapore) was determined; assay type: functional, organism-based
[5] = Evaluated for time-dependent and irreversible inhibitor of bovine S-adenosyl-L-homocysteine; parameters: species or system Bos taurus
[6] = test system: Influenza A virus; assay: Effective dose required to reduce virus induced cytopathogenicity by Influenza A(H1N1,Fu 88) was determined; assay type: functional, organism-based
[7] = test system: Influenza B virus; assay: Effective dose required to reduce virus induced cytopathogenicity by Influenza B (Fu 207) was determined; assay type: functional, organism-based

Row | SMILES | EC50 [1] [µg/mL] | EC50 [2] [µg/mL] | EC50 [3] [µg/mL] | EC50 [4] [µg/mL] | Ki [5] [nM] | EC50 [6] [µg/mL] | EC50 [7] [µg/mL]
1 | N#C[C@H]1OC(n2cnc3c(N)ncnc32)[C@H](O)[C@@H]1O (some centres not stated) | 1.4 (≈ 5.34 µM) | 10 (≈ 38.1 µM) | 1.2 (≈ 4.58 µM) |  |  |  | 
2 | C#C[C@H]1OC(n2cnc3c(N)ncnc32)[C@H](O)[C@@H]1O (some centres not stated) | 8.2 (≈ 31.4 µM) | 1.8 (≈ 6.89 µM) | 0.14 (≈ 0.536 µM) | 0.9 (≈ 3.45 µM) | 173 | 0.38 (≈ 1.45 µM) | 
3 | Nc1ncnc2c1ncn2C1O[C@H](C=C(Br)Br)[C@@H](O)[C@H]1O (some centres not stated) | > 10 |  | > 10 |  |  |  | 32 (≈ 76 µM)
4 | Nc1ncnc2c1ncn2[C@@H]1C=C(CO)[C@@H](O)[C@H]1O [NEOPLANOCIN A] | 0.2 (≈ 0.76 µM) | > 20 | 0.38 (≈ 1.44 µM) | > 20 |  | > 20 | 
5 | NC(=O)c1ncn([C@@H]2O[C@H](CO)[C@@H](O)[C@H]2O)n1 [RIBAVIRIN] | > 10 | 36.9 (≈ 151 µM) | > 10 | 6.7 (≈ 27.4 µM) |  | 19.6 (≈ 80.3 µM) | 
